{"source": "ChEMBL document CHEMBL3886414", "about": "“Bicarbocyclic and tricarbocyclic ethynyl derivatives and uses of same” (2015)", "data": [{"target": "Metabotropic glutamate receptor 5 (Homo sapiens, UniProt P41594)", "sequence (P41594 whole entry)": "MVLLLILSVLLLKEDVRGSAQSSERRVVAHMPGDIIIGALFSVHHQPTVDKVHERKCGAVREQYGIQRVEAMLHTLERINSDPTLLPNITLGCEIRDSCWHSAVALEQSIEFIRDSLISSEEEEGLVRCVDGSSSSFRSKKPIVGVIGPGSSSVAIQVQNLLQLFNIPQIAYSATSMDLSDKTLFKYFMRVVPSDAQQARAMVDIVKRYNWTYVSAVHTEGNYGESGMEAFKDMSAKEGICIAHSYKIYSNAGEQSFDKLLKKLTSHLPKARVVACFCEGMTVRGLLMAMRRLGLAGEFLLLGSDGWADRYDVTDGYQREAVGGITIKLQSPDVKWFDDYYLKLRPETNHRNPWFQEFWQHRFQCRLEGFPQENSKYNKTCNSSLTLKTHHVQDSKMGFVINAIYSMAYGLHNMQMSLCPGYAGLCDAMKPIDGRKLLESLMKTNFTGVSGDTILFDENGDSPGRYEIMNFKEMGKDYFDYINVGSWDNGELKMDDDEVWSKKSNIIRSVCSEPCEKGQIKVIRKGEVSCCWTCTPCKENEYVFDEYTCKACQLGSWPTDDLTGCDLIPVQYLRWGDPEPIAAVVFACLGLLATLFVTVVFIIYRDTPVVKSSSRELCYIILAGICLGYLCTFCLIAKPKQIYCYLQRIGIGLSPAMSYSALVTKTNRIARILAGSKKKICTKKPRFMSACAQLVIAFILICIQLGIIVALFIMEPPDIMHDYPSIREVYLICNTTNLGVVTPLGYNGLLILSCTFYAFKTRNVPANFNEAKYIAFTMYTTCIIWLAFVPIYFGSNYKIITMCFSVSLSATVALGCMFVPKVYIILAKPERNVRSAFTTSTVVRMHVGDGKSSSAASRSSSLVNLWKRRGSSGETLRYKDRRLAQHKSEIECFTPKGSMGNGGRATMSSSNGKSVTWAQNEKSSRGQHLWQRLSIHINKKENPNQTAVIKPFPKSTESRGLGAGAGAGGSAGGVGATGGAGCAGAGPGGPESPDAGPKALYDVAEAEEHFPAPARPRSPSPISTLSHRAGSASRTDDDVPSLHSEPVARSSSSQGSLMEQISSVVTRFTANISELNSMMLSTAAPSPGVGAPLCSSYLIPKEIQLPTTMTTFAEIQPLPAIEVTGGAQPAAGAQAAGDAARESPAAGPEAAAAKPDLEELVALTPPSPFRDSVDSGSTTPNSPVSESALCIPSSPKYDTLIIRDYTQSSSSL", "assay": "Calcium Mobilization Assay: The rmGluR5 or hmGluR5 was stably expressed in a HEK 293 cell line and gown in Dulbecco's Modified Eagle Medium (DMEM) (Invitrogen, Carlsbad, Calif.) with supplements (10% bovine calf serum, 4 mM glutamine, 100 units/mL penicillin, 100 μg/mL streptomycin and 0.75 mM G1418) at 37° C., 5% CO2. Twenty-four hours prior to assay, cells were seeded into 384-well black wall microtiter plates coated with poly-D-lysine. Just prior to assay, media was aspirated and cells dye-loaded (25 μL/well) with 3 μM Fluo-4/0.01% pluronic acid in assay buffer (Hank's Balanced Saline Solution (HBSS)): 150 mM NaCl, 5 mM KCl, 1 mM CaCl2, 1 mM MgCl2, plus 20 mM N-2-Hydroxyethylpiperazine-N′-2-ethanesulfonic acid (HEPES), pH 7.4, 0.1% bovine serum albumin (BSA) and 2.5 mM probenecid) for 1 hour in 5% CO2 at 37° C. After excess dye was discarded, cells were washed in assay buffer and layered with a final volume equal to 30 μL/well. Basal fluorescence is monitored in a fluorometri", "format": "functional, cell-based, HEK293", "units": {"IC50": "nM"}, "values": [{"smiles": "O=C(NC12CC3CC(CC(C#Cc4cnccn4)(C3)C1)C2)c1cncc(F)c1", "IC50": 30}, {"smiles": "O=C(N[C@@]12CCC[C@@](C#Cc3ncccc3F)(CC1)C2)c1cnccn1", "IC50": 9.3}, {"smiles": "O=C(NC12CCCC(C#Cc3cccc(F)c3)(CC1)C2)c1cnccn1", "note": "(stereo unspecified)", "IC50": 1.2}, {"smiles": "Cc1cncc(C(=O)NC23CC4CC(CC(C#Cc5cccnc5)(C4)C2)C3)n1", "IC50": 3.8}, {"smiles": "Cc1cccc(C#C[C@]23CCC[C@](NC(=O)c4ccccn4)(CC2)C3)n1", "IC50": 5.3}, {"smiles": "Cc1ccc(C#CC23CC4CC(C2)CC(NC(=O)c2cnccn2)(C4)C3)cn1", "IC50": 700}]}]}
